Test results reported in patent publication US20250222146A1, “Radiopharmaceuticals Targeting Somatostatin Receptor 2 and Uses Thereof” (RayzeBio, Inc., priority 2023, published 2025).
Numbered stars: 1 amine (or outer) side, 2 acyl side, 3 side chain; on linkers, the order of the positions; unused ones are H or OH. Square brackets hold non-standard residues; d marks the D form. Peptide text beside a SMILES is read from it. * marks the point of attachment. DOTA(Lu)NH(CH2)6NHCOCH2 = O=C(CN1CCN2CCN3CCN(CC1)CC(=O)[O][Lu]([O]C(=O)C2)[O]C(=O)C3)NCCCCCCNC(=O)C*; X6 = O=C(CN1CCN2CCN3CCN(CC1)CC(=O)[O][Lu]([O]C(=O)C2)[O]C(=O)C3)NCCOCCOCCOCCNC(=O)C*; Ala(piperidin-4-yl) = O=C([C@H](CC1CCN([*:3])CC1)N[*:1])[*:2]; dTrp(βS-Me) = C[C@@H](c1c[nH]c2ccccc12)[C@@H](N)C(=O)O; Gly(piperidin-4-yl) = N[C@H](C(=O)O)C1CCNCC1; dNMeW = CN[C@H](Cc1c[nH]c2ccccc12)C(=O)O; X25 = O=C([C@H](CC1CNC1)N[*:1])[*:2]; 4Pal = N[C@@H](Cc1ccncc1)C(=O)O; Gly(cPr) = N[C@H](C(=O)O)C1CC1; NMehCys = CN[C@@H](CCS)C(=O)O; Phg = N[C@H](C(=O)O)c1ccccc1

What follows are molecules tested against SSTR2 (Homo sapiens, UniProt P30874) (assay: SSTR binding affinity by radioligand binding competition assay ([125I]-Tyr11-Somatostatin, membrane extracts)). Conditions: radioligand competition, [125I]-Tyr11-Somatostatin 0.1 nM, membrane extracts; Ki from IC50 by Cheng Prusoff; read-out: SSTR2 Ki.
Sequence of SSTR2 (P30874 whole entry): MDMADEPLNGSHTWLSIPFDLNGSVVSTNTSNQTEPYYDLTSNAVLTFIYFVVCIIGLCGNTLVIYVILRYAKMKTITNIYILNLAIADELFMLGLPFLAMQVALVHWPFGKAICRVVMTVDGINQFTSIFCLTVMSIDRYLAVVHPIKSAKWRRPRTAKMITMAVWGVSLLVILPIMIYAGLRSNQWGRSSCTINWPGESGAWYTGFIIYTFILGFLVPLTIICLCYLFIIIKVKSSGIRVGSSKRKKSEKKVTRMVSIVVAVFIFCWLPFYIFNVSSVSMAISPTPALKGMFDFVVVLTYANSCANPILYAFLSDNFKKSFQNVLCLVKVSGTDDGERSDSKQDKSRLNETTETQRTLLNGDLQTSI
`C[C@@H](O)[C@@H]1NC(=O)[C@H](CCCCN)NC(=O)[C@@H](Cc2c[nH]c3ccccc23)NC(=O)[C@H](Cc2ccc(O)cc2)NC(=O)[C@H](CCSCC(=O)NCCCCCCNC(=O)CN2CCN3CCN4CCN(CC2)CC(=O)[O][Lu]([O]C(=O)C3)[O]C(=O)C4)N(C)C(=O)[C@H](c2ccccc2)NC1=O` [RB-0004821] (cyclo(KT[Phg][NMehCys](DOTA(Lu)NH(CH2)6NHCOCH2)Y[dW])) was tested, and the Ki was 1 to 3.33 nM. `CC(C)[C@@H]1NC(=O)[C@H](CCCCN)NC(=O)[C@@H](Cc2c[nH]c3ccccc23)NC(=O)[C@H](Cc2ccc(O)cc2)NC(=O)[C@H](CCSCC(=O)NCCOCCOCCOCCNC(=O)CN2CCN3CCN4CCN(CC2)CC(=O)[O][Lu]([O]C(=O)C3)[O]C(=O)C4)N(C)C(=O)[C@H](Cc2ccccc2)NC1=O` [RB-0004823] (cyclo(F[NMehCys](X6)Y[dW]KV)) was tested, and the Ki was < 1 nM. For `CC(C)[C@@H]1NC(=O)[C@H](CCCCN)NC(=O)[C@@H]([C@@H](C)c2c[nH]c3ccccc23)NC(=O)[C@H](Cc2ccncc2)NC(=O)[C@H](CCSCC(=O)NCCCCCCNC(=O)CN2CCN3CCN4CCN(CC2)CC(=O)[O][Lu]([O]C(=O)C3)[O]C(=O)C4)N(C)C(=O)[C@H](Cc2ccccc2)NC1=O` [RB-0004825] (cyclo([4Pal][dTrp(βS-Me)]KVF[NMehCys](DOTA(Lu)NH(CH2)6NHCOCH2))), the Ki was < 1 nM. `C[C@@H](O)[C@@H]1NC(=O)[C@H](CC2CCNCC2)NC(=O)[C@@H](Cc2c[nH]c3ccccc23)NC(=O)[C@H](Cc2ccc(O)cc2)NC(=O)[C@H](CCSCC(=O)NCCCCCCNC(=O)CN2CCN3CCN4CCN(CC2)CC(=O)[O][Lu]([O]C(=O)C3)[O]C(=O)C4)N(C)C(=O)[C@H](Cc2ccccc2)NC1=O` [RB-0004864] (cyclo(F[NMehCys](DOTA(Lu)NH(CH2)6NHCOCH2)Y[dW][Ala(piperidin-4-yl)]T)) gave a Ki of 1 to 3.33 nM. Molecule `C[C@@H](O)[C@@H]1NC(=O)[C@H](CC2CNC2)NC(=O)[C@@H](Cc2c[nH]c3ccccc23)NC(=O)[C@H](Cc2ccc(O)cc2)NC(=O)[C@H](CCSCC(=O)NCCCCCCNC(=O)CN2CCN3CCN4CCN(CC2)CC(=O)[O][Lu]([O]C(=O)C3)[O]C(=O)C4)N(C)C(=O)[C@H](Cc2ccccc2)NC1=O` [RB-0004866] (cyclo(F[NMehCys](DOTA(Lu)NH(CH2)6NHCOCH2)Y[dW][X25]T)) has a Ki of 10 to 33.3 nM. Work on `C[C@@H](O)[C@@H]1NC(=O)[C@H](C2CCNCC2)NC(=O)[C@@H](Cc2c[nH]c3ccccc23)NC(=O)[C@H](Cc2ccc(O)cc2)NC(=O)[C@H](CCSCC(=O)NCCCCCCNC(=O)CN2CCN3CCN4CCN(CC2)CC(=O)[O][Lu]([O]C(=O)C3)[O]C(=O)C4)N(C)C(=O)[C@H](Cc2ccccc2)NC1=O` [RB-0004868] (cyclo(F[NMehCys](DOTA(Lu)NH(CH2)6NHCOCH2)Y[dW][Gly(piperidin-4-yl)]T)) yielded a Ki of 3.33 to 10 nM. `CC(C)[C@@H]1NC(=O)[C@H](CCCCN)NC(=O)[C@@H](Cc2c[nH]c3ccccc23)NC(=O)[C@H](Cc2ccc(O)cc2)NC(=O)[C@H](CCSCC(=O)NCCCCCCNC(=O)CN2CCN3CCN4CCN(CC2)CC(=O)[O][Lu]([O]C(=O)C3)[O]C(=O)C4)N(C)C(=O)[C@H](C2CC2)NC1=O` [RB-0005247] (cyclo([Gly(cPr)][NMehCys](DOTA(Lu)NH(CH2)6NHCOCH2)Y[dW]KV)) showed a Ki of 3.33 to 10 nM. With `CC(C)[C@@H]1NC(=O)[C@H](CCCCN)NC(=O)[C@@H](Cc2c[nH]c3ccccc23)NC(=O)[C@H](Cc2ccc(O)cc2)NC(=O)[C@H](CCSCC(=O)NCCCCCCNC(=O)CN2CCN3CCN4CCN(CC2)CC(=O)[O][Lu]([O]C(=O)C3)[O]C(=O)C4)N(C)C(=O)[C@H](CC(N)=O)NC1=O` [RB-0005253] (cyclo(KVN[NMehCys](DOTA(Lu)NH(CH2)6NHCOCH2)Y[dW])) the Ki was 3.33 to 10 nM. In the case of `CC(C)[C@@H]1NC(=O)[C@H](CCCCN)NC(=O)[C@@H](Cc2c[nH]c3ccccc23)NC(=O)[C@H](Cc2ccc(O)cc2)NC(=O)[C@H](CCSCC(=O)NCCCCCCNC(=O)CN2CCN3CCN4CCN(CC2)CC(=O)[O][Lu]([O]C(=O)C3)[O]C(=O)C4)N(C)C(=O)[C@H](Cc2cnc[nH]2)NC1=O` [RB-0005255] (cyclo(H[NMehCys](DOTA(Lu)NH(CH2)6NHCOCH2)Y[dW]KV)), the Ki is reported as 1 to 3.33 nM. For `CC(C)[C@@H]1NC(=O)[C@H](CCCCN)NC(=O)[C@@H](Cc2c[nH]c3ccccc23)NC(=O)[C@H](Cc2ccc(O)cc2)NC(=O)[C@H](CCSCC(=O)NCCCCCCNC(=O)CN2CCN3CCN4CCN(CC2)CC(=O)[O][Lu]([O]C(=O)C3)[O]C(=O)C4)N(C)C(=O)[C@H](C)NC1=O` [RB-0005266] (cyclo(A[NMehCys](DOTA(Lu)NH(CH2)6NHCOCH2)Y[dW]KV)), the Ki was < 1 nM. With `CC(C)[C@@H]1NC(=O)[C@H](CCCCN)NC(=O)[C@@H](Cc2c[nH]c3ccccc23)NC(=O)[C@H](Cc2ccc(O)cc2)NC(=O)[C@H](CCSCC(=O)NCCCCCCNC(=O)CN2CCN3CCN4CCN(CC2)CC(=O)[O][Lu]([O]C(=O)C3)[O]C(=O)C4)N(C)C(=O)[C@H](CO)NC1=O` [RB-0005270] (cyclo(KVS[NMehCys](DOTA(Lu)NH(CH2)6NHCOCH2)Y[dW])) the Ki was < 1 nM. For `C[C@@H](O)[C@@H]1NC(=O)[C@H](CCCCN)NC(=O)[C@@H](Cc2c[nH]c3ccccc23)NC(=O)[C@H](Cc2ccc(O)cc2)NC(=O)[C@H](CCSCC(=O)NCCOCCOCCNC(=O)CN2CCN3CCN4CCN(CC2)CC(=O)[O][Lu]([O]C(=O)C3)[O]C(=O)C4)N(C)C(=O)[C@H](Cc2ccccc2)NC1=O` [RB-0005272], the Ki was < 1 nM. In the case of `C[C@@H](O)[C@@H]1NC(=O)[C@H](CCCCN)NC(=O)[C@@H](Cc2c[nH]c3ccccc23)NC(=O)[C@H](Cc2ccc(O)cc2)NC(=O)[C@H](CCSCC(=O)NCCCCCCNC(=O)CCC(C(=O)O)N2CCN3CCN4CCN(CC2)CC(=O)[O][Lu]([O]C(=O)C4)[O]C(=O)C3)N(C)C(=O)[C@H](Cc2ccccc2)NC1=O` (stereo partly drawn) [RB-0005274], the Ki is reported as < 1 nM. Work on `C[C@@H](O)[C@@H]1NC(=O)[C@H](CCCCN)NC(=O)[C@@H](Cc2c[nH]c3ccccc23)NC(=O)[C@H](Cc2ccc(O)cc2)NC(=O)[C@H](CCSCC(=O)N[C@H](CCCCNC(=O)CN2CCN3CCN4CCN(CC2)CC(=O)[O][Lu]([O]C(=O)C3)[O]C(=O)C4)C(=O)O)N(C)C(=O)[C@H](Cc2ccccc2)NC1=O` [RB-0005276] yielded a Ki of 1 to 3.33 nM. With `C[C@@H](O)[C@@H]1NC(=O)[C@H](CCCCN)NC(=O)[C@@H](Cc2c[nH]c3ccccc23)NC(=O)[C@H](Cc2ccc(O)cc2)NC(=O)[C@H](CCSCC(=O)NCCCC[C@@H](NC(=O)CN2CCN3CCN4CCN(CC2)CC(=O)[O][Lu]([O]C(=O)C3)[O]C(=O)C4)C(=O)O)N(C)C(=O)[C@H](Cc2ccccc2)NC1=O` [RB-0005278] the Ki was 1 to 3.33 nM. In the case of `C[C@@H](O)[C@@H]1NC(=O)[C@H](CCCCN)NC(=O)[C@@H](Cc2c[nH]c3ccccc23)NC(=O)[C@H](Cc2ccc(O)cc2)NC(=O)[C@H](CCSCC(=O)NCCOCCOCCOCCNC(=O)CN2CCN3CCN4CCN(CC2)CC(=O)[O][Lu]([O]C(=O)C3)[O]C(=O)C4)N(C)C(=O)[C@H](Cc2ccccc2)NC1=O` [RB-0005284], the Ki is reported as < 1 nM. With `C[C@@H](O)[C@@H]1NC(=O)[C@H](CCCCN)NC(=O)[C@@H](Cc2c[nH]c3ccccc23)NC(=O)[C@H](Cc2ccc(O)cc2)NC(=O)[C@H](CCSCC(=O)NCCOCCOCCOCCNC(=O)CN2CCN3CCN4CCN(CC2)CC(=O)[O][Lu]([O]C(=O)C3)[O]C(=O)C4)N(C)C(=O)CNC1=O` [RB-0005286] (cyclo(G[NMehCys](X6)Y[dW]KT)) the Ki was 10 to 33.3 nM. `C[C@@H](O)[C@@H]1NC(=O)[C@H](CCCCN)NC(=O)[C@@H](Cc2c[nH]c3ccccc23)N(C)C(=O)[C@H](Cc2ccc(O)cc2)NC(=O)[C@H](CCSCC(=O)NCCCCCCNC(=O)CN2CCN3CCN4CCN(CC2)CC(=O)[O][Lu]([O]C(=O)C3)[O]C(=O)C4)N(C)C(=O)[C@H](Cc2ccccc2)NC1=O` [RB-0005330] (cyclo(F[NMehCys](DOTA(Lu)NH(CH2)6NHCOCH2)Y[dNMeW]KT)) was tested, and the Ki was < 1 nM. Molecule `C[C@@H](O)[C@@H]1NC(=O)[C@H](CCCCN)NC(=O)[C@@H](Cc2c[nH]c3ccccc23)NC(=O)CNC(=O)[C@H](CCSCC(=O)NCCCCCCNC(=O)CN2CCN3CCN4CCN(CC2)CC(=O)[O][Lu]([O]C(=O)C3)[O]C(=O)C4)N(C)C(=O)[C@H](Cc2ccccc2)NC1=O` [RB-0005694] (cyclo(F[NMehCys](DOTA(Lu)NH(CH2)6NHCOCH2)G[dW]KT)) has a Ki of 1 to 3.33 nM. For `C[C@@H]1NC(=O)[C@H](CCSCC(=O)NCCCCCCNC(=O)CN2CCN3CCN4CCN(CC2)CC(=O)[O][Lu]([O]C(=O)C3)[O]C(=O)C4)N(C)C(=O)[C@H](Cc2ccccc2)NC(=O)[C@H]([C@@H](C)O)NC(=O)[C@H](CCCCN)NC(=O)[C@@H](Cc2c[nH]c3ccccc23)NC1=O` [RB-0005696] (cyclo(A[dW]KTF[NMehCys](DOTA(Lu)NH(CH2)6NHCOCH2))), the Ki was 10 to 33.3 nM. Molecule `C[C@@H](O)[C@@H]1NC(=O)[C@H](CCCCN)NC(=O)[C@@H](Cc2c[nH]c3ccccc23)NC(=O)[C@H](Cc2ccc(O)cc2)NC(=O)[C@H](CCNC(=O)CCCCCNC(=O)CN2CCN3CCN4CCN(CC2)CC(=O)[O][Lu]([O]C(=O)C3)[O]C(=O)C4)N(C)C(=O)[C@H](Cc2ccccc2)NC1=O` [RB-0005717] has a Ki of 10 to 33.3 nM. For `C[C@@H](O)[C@@H]1NC(=O)[C@H](CCCCN)NC(=O)[C@@H](Cc2c[nH]c3ccccc23)NC(=O)[C@H](Cc2ccc(O)cc2)NC(=O)[C@H](CNC(=O)CCCCCNC(=O)CN2CCN3CCN4CCN(CC2)CC(=O)[O][Lu]([O]C(=O)C3)[O]C(=O)C4)N(C)C(=O)[C@H](Cc2ccccc2)NC1=O` [RB-0005728], the Ki was 3.33 to 10 nM. For `C[C@@H](O)[C@@H]1NC(=O)[C@H](CCCCN)NC(=O)[C@@H](Cc2c[nH]c3ccccc23)NC(=O)[C@H](Cc2ccc(O)cc2)NC(=O)[C@H](CNC(=O)[C@H](CC(=O)O)NC(=O)CCCCCNC(=O)CN2CCN3CCN4CCN(CC2)CC(=O)[O][Lu]([O]C(=O)C3)[O]C(=O)C4)N(C)C(=O)[C@H](Cc2ccccc2)NC1=O` [RB-0005730], the Ki was < 1 nM. In the case of `C[C@@H](O)[C@@H]1NC(=O)[C@H](CCCCN)NC(=O)[C@@H](Cc2c[nH]c3ccccc23)NC(=O)[C@H](Cc2ccc(O)cc2)NC(=O)[C@H](CNC(=O)C[C@H](NC(=O)CCCCCNC(=O)CN2CCN3CCN4CCN(CC2)CC(=O)[O][Lu]([O]C(=O)C3)[O]C(=O)C4)C(=O)O)N(C)C(=O)[C@H](Cc2ccccc2)NC1=O` [RB-0005732], the Ki is reported as 33.3 to 100 nM.
